Series [1] addresses Mitogen-activated protein kinase 14 (Homo sapiens, UniProt Q16539). Briefly: Inhibition of human MAP p38-alpha kinase in vitro.
The nature of series [2]: Aqueous solubility at pH 7.4. Type of series: physicochemical.

Values after ≈ are worked out from the molar mass of the structure shown.

Mitogen-activated protein kinase 14, sequence (Q16539 whole entry): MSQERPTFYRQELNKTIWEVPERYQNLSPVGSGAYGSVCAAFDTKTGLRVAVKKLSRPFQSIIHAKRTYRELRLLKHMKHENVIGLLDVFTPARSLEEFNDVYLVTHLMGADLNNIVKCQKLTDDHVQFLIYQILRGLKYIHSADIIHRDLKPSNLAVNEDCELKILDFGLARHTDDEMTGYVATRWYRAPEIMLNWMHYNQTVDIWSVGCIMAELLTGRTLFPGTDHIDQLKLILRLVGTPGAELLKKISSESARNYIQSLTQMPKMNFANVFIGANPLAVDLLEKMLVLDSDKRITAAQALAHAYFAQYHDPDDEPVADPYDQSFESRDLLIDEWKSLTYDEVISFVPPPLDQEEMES

One may read the IC50 as the concentration at which inhibition is half-maximal. A low value points to inhibition by little substance. Compound `Cc1cc(F)ccc1-c1nc(N(C(N)=O)c2ccccc2Cl)c2ncn(C)c2n1` gave an IC50 in series [1] of 123 nM.

In series [1], `Cn1cnc2c(N(C(N)=O)c3c(F)cccc3F)nc(-c3ccc(F)cc3F)nc21` gave an IC50 of 26 nM.

One may read the solubility as the concentration that dissolves in the medium under given conditions. The compound `Cn1cnc2c(N(C(N)=O)c3c(F)cccc3F)nc(-c3ccccc3F)nc21` showed a solubility in series [2] of 1 µM (≈ 0.398 µg/mL). In series [1], this compound registered a 50% inhibitory concentration (IC50) of 36 nM.

`NC(=O)N(c1c(F)cccc1F)c1nc(-c2ccccc2F)nc2c1ncn2Cc1ccccc1` had an IC50 in series [1] of 16 nM.

Compound `CN(C)CCn1cnc2c(N(C(N)=O)c3c(F)cccc3F)nc(-c3ccccc3F)nc21` returned a solubility in series [2] greater than 20 µM. This compound also came in with a half-maximal inhibitory concentration (IC50) in series [1] of 82 nM.

In series [1], `Cc1cc(F)ccc1-c1nc(N(C(N)=O)c2ccc(Cl)cc2)c2ncn(C)c2n1` registered a half-maximal inhibitory concentration (IC50) of 9800 nM.

For `Cc1cc(F)ccc1-c1nc(N(C(N)=O)c2ccc(F)cc2)c2ncn(C)c2n1`, the IC50 in series [1] came out at 1400 nM.

`Cc1cccc(-c2nc(N(C(N)=O)c3c(F)cccc3F)c3ncn(C)c3n2)c1` showed a 50% inhibitory concentration (IC50) in series [1] of 350 nM.

In series [1], `Cc1cc(F)ccc1-c1nc(N(C(N)=O)c2c(F)cccc2F)c2ncn(C)c2n1` gave a 50% inhibitory concentration (IC50) of 128 nM. This IC50 is about 2.7-fold lower than that of the compound before.

In turn, `Cc1cc(F)ccc1-c1nc(N(C(N)=O)c2ccccc2)c2ncn(C)c2n1` showed a concentration for half-maximal inhibition (IC50) in series [1] greater than 16700 nM.

With `Cn1cnc2c(N(C(N)=O)c3c(F)cccc3F)nc(-c3cccc(Cl)c3)nc21`, in series [1], the IC50 came to 550 nM.

For `Cn1cnc2c(N(C(N)=O)c3c(F)cccc3F)nc(-c3ccccc3)nc21`, the IC50 in series [1] is 510 nM. The IC50 values of the last two compounds are within 1.5-fold of each other.

As for `COc1ccccc1N(C(N)=O)c1nc(-c2ccc(F)cc2C)nc2c1ncn2C`, in series [1], the IC50 was greater than 16700 nM.

`Cc1cc(F)ccc1-c1nc(N(C(N)=O)c2c(F)cc(F)cc2F)c2ncn(C)c2n1`: in series [1], the midpoint of inhibition, the IC50, lay at 163 nM.

As to `Cn1cnc2c(N(C(N)=O)c3c(F)cccc3F)nc(-c3ccc(F)cc3)nc21`, in series [1], the half-maximal inhibitory concentration (IC50) stood at 1000 nM.

For the compound `Cc1ccc(-c2nc(N(C(N)=O)c3c(F)cccc3F)c3ncn(C)c3n2)cc1`, half-maximal inhibition in series [1] (IC50) required 2100 nM. This IC50 is about 2.1-fold higher than that of the compound before.

In series [1], `Cn1cnc2c(N(C(N)=O)c3c(F)cccc3F)nc(-c3cc(F)cc(F)c3)nc21` gave a 50% inhibitory concentration (IC50) greater than 16700 nM.

On to `Cn1cnc2c(N(C(N)=O)c3c(F)cccc3F)nc(-c3cccc(F)c3)nc21`, for which 5000 nM corresponded to half-maximal inhibition in series [1] (IC50).

Consider `Cn1cnc2c(N(C(N)=O)c3c(F)cccc3F)nc(-c3ccccc3Cl)nc21`, for which the IC50 in series [1] worked out at 30 nM. Compared with the last compound, the IC50 is about 170-fold lower.

As to `Cc1ccccc1-c1nc(N(C(N)=O)c2c(F)cccc2F)c2ncn(C)c2n1`, it took 140 nM to reach half-maximal inhibition in series [1] (IC50). Against the preceding compound, the IC50 is about 4.7-fold higher.

(Values after ChEMBL document CHEMBL1136664, “N-Phenyl-N-purin-6-yl ureas: the design and synthesis of p38alpha MAP kinase inhibitors” (Bioorg Med Chem Lett, 2003).)
